{"source": "patent US20110280940A1", "about": "“Di-Vanilloyl And Tri-Vanilloyl Derivatives For Use In Anti-Cancer Therapy” (priority 2008, published 2011)", "key": {"CDK5/p25": {"biological_target": "T1, CDK5/p25 (Homo sapiens, UniProt Q00535)", "T1 construct": "made in house", "T1 sequence (Q00535 whole entry)": "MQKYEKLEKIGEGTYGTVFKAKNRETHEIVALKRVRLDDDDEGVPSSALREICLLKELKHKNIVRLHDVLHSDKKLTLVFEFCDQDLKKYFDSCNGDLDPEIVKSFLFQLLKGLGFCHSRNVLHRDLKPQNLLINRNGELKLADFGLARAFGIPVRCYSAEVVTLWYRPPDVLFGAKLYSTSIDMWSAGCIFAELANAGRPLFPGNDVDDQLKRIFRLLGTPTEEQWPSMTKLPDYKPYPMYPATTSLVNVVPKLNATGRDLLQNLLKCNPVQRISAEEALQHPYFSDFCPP", "T1 sequence (Q15078 99-307 partner limits assumed)": "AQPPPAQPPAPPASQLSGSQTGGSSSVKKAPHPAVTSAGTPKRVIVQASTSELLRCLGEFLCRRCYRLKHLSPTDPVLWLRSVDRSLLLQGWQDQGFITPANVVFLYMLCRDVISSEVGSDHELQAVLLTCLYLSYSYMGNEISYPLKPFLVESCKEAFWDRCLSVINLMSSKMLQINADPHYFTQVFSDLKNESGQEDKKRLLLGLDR", "assay": "Kinase activity assay, CDK5", "type": "biochemical", "conditions": "10 μM, 1% DMSO, 15 μM ATP; residual activity", "method": "(§1) Buffer A: 10 mM MgCl2, 1 mM EGTA, 1 mM DTT, 25 mM Tris-HCl pH 7.5, 50 μg heparin/ml. Buffer C: 60 mM β-glycerophosphate, 15 mM p-nitrophenylphosphate, 25 mM Mops (pH 7.2), 5 mM EGTA, 15 mM MgCl2, 1 mM DTT, 1 mM sodium vanadate, 1 mM phenyl phosphate.\n(§2) Kinase activities were assayed in Buffer A or C, at 30° C., at a final ATP concentration of 15 μM. Blank values were subtracted and activities expressed in % of the maximal activity, i.e. in the absence of inhibitors. Controls were performed with appropriate dilutions of DMSO.\nCDK1/cyclin B (M phase starfish oocytes, native), CDK2/cyclin A, CDK2/cyclin E, CDK5/p25 and CDK7/cyclin H (human, recombinant) were prepared as previously described (Leclerc et al., 2001, J. Biol. Chem. 2001, 276, 251-260; Bach et al., 2005, J Biol Chem 280: 31208-31219). Their kinase activity was assayed in buffer C, with 1 mg histone H1/ml, in the presence of 15 μM [gamma-^33P] ATP (3,000 Ci/mmol; 10 mCi/ml) in a final volume of 30 μl. After 30 min incubation at 30° C., 25 μl aliquots of supernatant were spotted onto 2.5×3 cm pieces of Whatman P81 phosphocellulose paper, and, 20 sec later, the filters were washed five times (for at least 5 min each time) in a solution of 10 ml phosphoric acid/liter of water. The wet filters were counted in the presence of 1 ml ACS (Amersham) scintillation fluid."}, "pfGSK3": {"biological_target": "pfGSK3 (Plasmodium falciparum, UniProt O77344)", "sequence (O77344 1-440)": "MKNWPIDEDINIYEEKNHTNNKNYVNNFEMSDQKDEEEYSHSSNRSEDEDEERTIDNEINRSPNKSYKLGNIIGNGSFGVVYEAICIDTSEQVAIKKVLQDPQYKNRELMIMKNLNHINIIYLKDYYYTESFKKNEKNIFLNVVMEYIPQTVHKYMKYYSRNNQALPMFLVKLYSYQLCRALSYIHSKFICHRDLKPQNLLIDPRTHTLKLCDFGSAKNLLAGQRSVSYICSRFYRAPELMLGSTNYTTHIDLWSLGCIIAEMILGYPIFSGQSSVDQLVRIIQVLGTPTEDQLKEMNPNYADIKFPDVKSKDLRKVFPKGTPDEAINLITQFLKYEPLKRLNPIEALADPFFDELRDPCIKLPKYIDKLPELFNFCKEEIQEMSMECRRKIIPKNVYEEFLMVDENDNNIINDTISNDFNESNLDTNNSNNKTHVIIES", "assay": "Kinase activity assay, pfGSK3", "type": "biochemical", "conditions": "10 μM, 1% DMSO, 15 μM ATP; residual activity", "method": "as §1, §2"}, "GSK-3": {"system": "GSK-3", "assay": "Kinase activity assay, GSK3", "type": "biochemical, porcine", "conditions": "10 μM, 1% DMSO, 15 μM ATP; residual activity", "method": "as §1, §2\nGSK-3 (porcine brain, native) was assayed, as described for CDK1 but in Buffer A and using a GSK-3 specific substrate (GS-1: […]pEDEEE) (Seq. ID NO 1) (pS stands for phosphorylated serine) (Primot et al., 2000, Protein Expr. & Purif. 20 (3), 394-404). GS-1 was synthesized by Millegen (Labege, France)."}, "WI38 normal fibroblasts": {"system": "WI38 normal fibroblasts", "assay": "Cellular imaging (quantitative videomicroscopy), global growth ratio, WI38", "type": "cell-based, human", "conditions": "50 μM, 72 h", "text": "As the MTT test is based on the mitochondria functions, we also investigated the effects of the di- and tri-vanilloyl derivatives according to the invention on cell proliferation, migration and morphology by means of a cellular imaging approach (Debeir et al., Cytometry 60:29-40, 2004; Debeir et al., IEEE Trans Med Imaging 24:697-711, 2005) either in the human U373-MG glioma cell line, which is apoptosis-resistant but autophagy-sensitive (Lefranc F et al., Neurosurgery 2008) and in the human A549 non-small-cell-lung cancer cell line, which is apoptosis-resistant and autophagy-resistant (Mijatovic T et al., Neoplasia 2006, May; 8(5):402-12).\nInvestigations have also been performed in human normal fibroblasts (WS1 and WI38—see Tables 4 and 5). Cellular imaging relied on the use of computer-assisted phase-contrast microscopy making possible to film the behaviour of living cells in culture dishes for several days. […]\nThe behaviour of the cells, in terms of morphology, growth and death were thus investigated. The effect on the overall growth was measured by counting the number of cells on the first (0 h) and the last image (72 h) of each film. […] The ratio GGRtreated cells/GGRcontrol cells, was further calculated thereby obtaining a value that describes the effect of compounds of the present invention on the overall cell growth. […]"}}}
{"smiles": "COc1cc(C(=O)OCCOC(=O)c2ccc(O)c(OC)c2)ccc1O", "note": "[DLT1, Ethane-1,2-diyl bis-(4-hydroxy-3-methoxybenzoate)]", "values": [{"measurement": "% ENZYMATIC ACTIVITY, CDK5", "setting": "CDK5/p25", "result": 87, "unit": "%"}, {"measurement": "% ENZYMATIC ACTIVITY, pfGSK3", "setting": "pfGSK3", "result": 92, "unit": "%"}, {"measurement": "% ENZYMATIC ACTIVITY, GSK3", "setting": "GSK-3", "result": 77, "unit": "%"}, {"measurement": "Global Grow Ratio Treated/Ct (GGR T/Ct) determined by Video Quantitative microscopy, WI38", "setting": "WI38 normal fibroblasts", "result": 0.8}]}
